Results: PubChem BioAssay (NCI)
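The compound was tested at five concentrations on cells cultured in 96-well plates, with a 48-hour exposure period. GI50 = concentration required for 50% inhibition of growth. TGI: total growth inhibition.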

Tests used:
Assay in all cases: growth of human tumour cells (NCI), 48 h
NCI-H226 lung = tested on: NCI-H226 lung
HCC-2998 colon = tested on: HCC-2998 colon
OVCAR-4 ovarian = tested on: OVCAR-4 ovarian
SR leukemia = tested on: SR leukemia
A549 NSCLC = tested on: A549 NSCLC
CCRF-CEM leukemia = tested on: CCRF-CEM leukemia
SK-MEL-28 melanoma = tested on: SK-MEL-28 melanoma
OVCAR-5 ovarian = tested on: OVCAR-5 ovarian
NCI-H522 lung = tested on: NCI-H522 lung
K-562 leukemia = tested on: K-562 leukemia
LOX IMVI melanoma = tested on: LOX IMVI melanoma
HCT-15 colon = tested on: HCT-15 colon
UACC-62 melanoma = tested on: UACC-62 melanoma
HT29 colon = tested on: HT29 colon
SNB-75 CNS = tested on: SNB-75 CNS
MCF7 breast = tested on: MCF7 breast
SW-620 colon = tested on: SW-620 colon
HCT-116 colon = tested on: HCT-116 colon
SF-295 CNS = tested on: SF-295 CNS
MDA-MB-435 = tested on: MDA-MB-435
MDA-MB-231 breast = tested on: MDA-MB-231 breast
SF-268 CNS = tested on: SF-268 CNS
COLO 205 colon = tested on: COLO 205 colon
SNB-19 CNS = tested on: SNB-19 CNS
PC-3 prostate = tested on: PC-3 prostate
SK-OV-3 ovarian = tested on: SK-OV-3 ovarian
CAKI-1 renal = tested on: CAKI-1 renal
UACC-257 melanoma = tested on: UACC-257 melanoma
IGROV1 ovarian = tested on: IGROV1 ovarian
SK-MEL-5 melanoma = tested on: SK-MEL-5 melanoma
SK-MEL-2 melanoma = tested on: SK-MEL-2 melanoma
MOLT-4 leukemia = tested on: MOLT-4 leukemia
DU-145 prostate = tested on: DU-145 prostate
KM12 colon = tested on: KM12 colon
NCI/ADR-RES ovarian = tested on: NCI/ADR-RES ovarian
HS 578T breast = tested on: HS 578T breast
OVCAR-8 ovarian = tested on: OVCAR-8 ovarian
M14 melanoma = tested on: M14 melanoma
HOP-62 NSCLC = tested on: HOP-62 NSCLC
OVCAR-3 ovarian = tested on: OVCAR-3 ovarian
SN12C renal = tested on: SN12C renal
NCI-H23 lung = tested on: NCI-H23 lung
RXF 393 renal = tested on: RXF 393 renal
HOP-92 NSCLC = tested on: HOP-92 NSCLC
EKVX NSCLC = tested on: EKVX NSCLC
T-47D breast = tested on: T-47D breast
BT-549 breast = tested on: BT-549 breast
TK-10 renal = tested on: TK-10 renal
ACHN renal = tested on: ACHN renal
HL-60(TB) leukemia = tested on: HL-60(TB) leukemia
786-0 renal = tested on: 786-0 renal
SF-539 CNS = tested on: SF-539 CNS
NCI-H460 lung = tested on: NCI-H460 lung
MALME-3M melanoma = tested on: MALME-3M melanoma
UO-31 renal = tested on: UO-31 renal
RPMI-8226 leukemia = tested on: RPMI-8226 leukemia
U251 CNS = tested on: U251 CNS

CCNCc1c(-c2cccc(OC(F)(F)F)c2)[nH]c2ccc(N3CCCC3)cc2c1=O
GI50 (NCI-H226 lung): 9.29 µM | TGI (NCI-H226 lung): > 100 µM | GI50 (HCC-2998 colon): 1.88 µM | TGI (HCC-2998 colon): 3.58 µM | GI50 (OVCAR-4 ovarian): 7.77 µM | TGI (OVCAR-4 ovarian): > 100 µM | GI50 (SR leukemia): 2.71 µM | TGI (SR leukemia): 12.4 µM | GI50 (A549 NSCLC): 5.81 µM | TGI (A549 NSCLC): > 100 µM | GI50 (CCRF-CEM leukemia): 3.52 µM | TGI (CCRF-CEM leukemia): > 100 µM | GI50 (SK-MEL-28 melanoma): 2.25 µM | TGI (SK-MEL-28 melanoma): 5.51 µM | GI50 (OVCAR-5 ovarian): 3.81 µM | TGI (OVCAR-5 ovarian): 43.5 µM | GI50 (NCI-H522 lung): 3.98 µM | TGI (NCI-H522 lung): 23.1 µM | GI50 (K-562 leukemia): 3.4 µM | TGI (K-562 leukemia): > 100 µM | GI50 (LOX IMVI melanoma): 3.31 µM | TGI (LOX IMVI melanoma): 12.5 µM | GI50 (HCT-15 colon): 3.47 µM | TGI (HCT-15 colon): 15.9 µM | GI50 (UACC-62 melanoma): 3.47 µM | TGI (UACC-62 melanoma): 14.3 µM | GI50 (HT29 colon): 3.53 µM | TGI (HT29 colon): > 100 µM | GI50 (SNB-75 CNS): 1.42 µM | TGI (SNB-75 CNS): 8.65 µM | GI50 (MCF7 breast): 2.57 µM | TGI (MCF7 breast): 11.2 µM | GI50 (SW-620 colon): 3.17 µM | TGI (SW-620 colon): 13.7 µM | GI50 (HCT-116 colon): 3.46 µM | TGI (HCT-116 colon): 35.4 µM | GI50 (SF-295 CNS): 1.97 µM | TGI (SF-295 CNS): 4.06 µM | GI50 (MDA-MB-435): 1.95 µM | TGI (MDA-MB-435): 4.32 µM | GI50 (MDA-MB-231 breast): 2.69 µM | TGI (MDA-MB-231 breast): 9.28 µM | GI50 (SF-268 CNS): 6.44 µM | TGI (SF-268 CNS): 69.2 µM | GI50 (COLO 205 colon): 2.36 µM | TGI (COLO 205 colon): 5.74 µM | GI50 (SNB-19 CNS): 4.03 µM | TGI (SNB-19 CNS): > 100 µM | GI50 (PC-3 prostate): 3.87 µM | TGI (PC-3 prostate): > 100 µM | GI50 (SK-OV-3 ovarian): 7.19 µM | TGI (SK-OV-3 ovarian): > 100 µM | GI50 (CAKI-1 renal): 3.54 µM | TGI (CAKI-1 renal): 17.6 µM | GI50 (UACC-257 melanoma): 2.35 µM | TGI (UACC-257 melanoma): 6.08 µM | GI50 (IGROV1 ovarian): 3.54 µM | TGI (IGROV1 ovarian): > 100 µM | GI50 (SK-MEL-5 melanoma): 2.09 µM | TGI (SK-MEL-5 melanoma): 4.42 µM | GI50 (SK-MEL-2 melanoma): 3.73 µM | TGI (SK-MEL-2 melanoma): 17.2 µM | GI50 (MOLT-4 leukemia): 3.88 µM | TGI (MOLT-4 leukemia): 37.3 µM | GI50 (DU-145 prostate): 3.8 µM | TGI (DU-145 prostate): > 100 µM | GI50 (KM12 colon): 3.54 µM | TGI (KM12 colon): 20.7 µM | GI50 (NCI/ADR-RES ovarian): 2.48 µM | TGI (NCI/ADR-RES ovarian): 7 µM | GI50 (HS 578T breast): 1.94 µM | TGI (HS 578T breast): 6.48 µM | GI50 (OVCAR-8 ovarian): 5.22 µM | TGI (OVCAR-8 ovarian): > 100 µM | GI50 (M14 melanoma): 1.95 µM | TGI (M14 melanoma): 4.28 µM | GI50 (HOP-62 NSCLC): 5.63 µM | TGI (HOP-62 NSCLC): 73.8 µM | GI50 (OVCAR-3 ovarian): 3.45 µM | TGI (OVCAR-3 ovarian): 20.3 µM | GI50 (SN12C renal): 4.12 µM | TGI (SN12C renal): 46.4 µM | GI50 (NCI-H23 lung): 3.15 µM | TGI (NCI-H23 lung): 10.7 µM | GI50 (RXF 393 renal): 2.39 µM | TGI (RXF 393 renal): 7.61 µM | GI50 (HOP-92 NSCLC): 4.19 µM | TGI (HOP-92 NSCLC): 38.4 µM | GI50 (EKVX NSCLC): 12.3 µM | TGI (EKVX NSCLC): > 100 µM | GI50 (T-47D breast): 4.78 µM | TGI (T-47D breast): 59.3 µM | GI50 (BT-549 breast): 4.84 µM | TGI (BT-549 breast): 44.6 µM | GI50 (TK-10 renal): 24.7 µM | TGI (TK-10 renal): > 100 µM | GI50 (ACHN renal): 6.73 µM | TGI (ACHN renal): > 100 µM | GI50 (HL-60(TB) leukemia): 2.86 µM | TGI (HL-60(TB) leukemia): 9.69 µM | GI50 (786-0 renal): 3.84 µM | TGI (786-0 renal): 20.6 µM | GI50 (SF-539 CNS): 2.24 µM | TGI (SF-539 CNS): 5.85 µM | GI50 (NCI-H460 lung): 3.72 µM | TGI (NCI-H460 lung): 16.2 µM | GI50 (MALME-3M melanoma): 1.99 µM | TGI (MALME-3M melanoma): 4.41 µM | GI50 (UO-31 renal): 3.72 µM | TGI (UO-31 renal): > 100 µM | GI50 (RPMI-8226 leukemia): 2.44 µM | TGI (RPMI-8226 leukemia): 6.85 µM | GI50 (U251 CNS): 3.23 µM | TGI (U251 CNS): 14.8 µM
